Calls of active or inactive are those of the source. The rule behind the calls is not given here.
What was measured:
[1] = system: HeLa; test: Antiproliferation activity against human Hela cells assessed as reduction in cell viability incubated for 72 hrs by MTT assay; type: functional, cell-based
[2] = Absorption property of the compound assessed as maximum absorption wavelength at 5 uM under pH condition 7.4 by fluorescence spectrophotometric method; type: physicochemical
[3] = Drug uptake in human MDA-MB-231 cells assessed as increased fluorescence intensity at 5 uM for 1 to 24 hrs by fluorescence imaging analysis; type: ADME, cell-based; settings: mda-mb-231, 25 µM, time 1-24 hrs
[4] = system: MDA-MB-231; test: Antiproliferation activity against human MDA-MB-231 cells assessed as reduction in cell viability incubated for 72 hrs by MTT assay; type: functional, cell-based
[5] = Emission property of the compound assessed as maximum wavelength at 5 uM under pH condition 7.4 at excitation wavelength by fluorescence spectrophotometric method; type: physicochemical
[6] = Emission property of the compound assessed as fluorescence at 5 uM under acidic condition at pH 4 by fluorescence spectrophotometric method; type: physicochemical; settings: pH 4, 5 µM
[7] = biological target: Histone deacetylase 3 (Homo sapiens, UniProt O15379); test: Inhibition of human recombinant HDAC3 expressed in baculovirus infected High5 insect cells using Ac-Lys-Tyr-Lys(e-acetyl)-AMC as substrate incubated for 24 hrs measured after 30 mins by microplate reader based spectrophotometric analysis; set-up: species or system BTI-TN-5B1-4
[8] = Drug uptake in human Hela cells assessed as increased fluorescence intensity at 5 to 25 uM for 1 to 24 hrs by fluorescence imaging analysis; type: ADME, cell-based; settings: dose 1-25 µM, time 1-24 hrs
[9] = Drug uptake in human MDA-MB-231 cells assessed as decrease in fluorescence intensity at 25 uM for 1 to 24 hrs by fluorescence imaging analysis; type: ADME, cell-based; settings: mda-mb-231, 25 µM, time 1-24 hrs
[10] = biological target: Histone deacetylase 1 (Homo sapiens, UniProt Q13547); test: Inhibition of human recombinant HDAC1 expressed in baculovirus infected High5 insect cells using Ac-Lys-Tyr-Lys(e-acetyl)-AMC as substrate incubated for 24 hrs measured after 30 mins by microplate reader based spectrophotometric analysis; set-up: species or system BTI-TN-5B1-4
[11] = biological target: T1, Protein deacetylase HDAC6 (Homo sapiens, UniProt Q9UBN7); test: Inhibition of human recombinant HDAC6 expressed in baculovirus infected High5 insect cells using Boc-Lys(eacety1)-AMC as substrate incubated for 3 hrs measured after 30 mins by microplate reader based spectrophotometric analysis; set-up: species or system BTI-TN-5B1-4
T1 sequence (Q9UBN7 whole entry): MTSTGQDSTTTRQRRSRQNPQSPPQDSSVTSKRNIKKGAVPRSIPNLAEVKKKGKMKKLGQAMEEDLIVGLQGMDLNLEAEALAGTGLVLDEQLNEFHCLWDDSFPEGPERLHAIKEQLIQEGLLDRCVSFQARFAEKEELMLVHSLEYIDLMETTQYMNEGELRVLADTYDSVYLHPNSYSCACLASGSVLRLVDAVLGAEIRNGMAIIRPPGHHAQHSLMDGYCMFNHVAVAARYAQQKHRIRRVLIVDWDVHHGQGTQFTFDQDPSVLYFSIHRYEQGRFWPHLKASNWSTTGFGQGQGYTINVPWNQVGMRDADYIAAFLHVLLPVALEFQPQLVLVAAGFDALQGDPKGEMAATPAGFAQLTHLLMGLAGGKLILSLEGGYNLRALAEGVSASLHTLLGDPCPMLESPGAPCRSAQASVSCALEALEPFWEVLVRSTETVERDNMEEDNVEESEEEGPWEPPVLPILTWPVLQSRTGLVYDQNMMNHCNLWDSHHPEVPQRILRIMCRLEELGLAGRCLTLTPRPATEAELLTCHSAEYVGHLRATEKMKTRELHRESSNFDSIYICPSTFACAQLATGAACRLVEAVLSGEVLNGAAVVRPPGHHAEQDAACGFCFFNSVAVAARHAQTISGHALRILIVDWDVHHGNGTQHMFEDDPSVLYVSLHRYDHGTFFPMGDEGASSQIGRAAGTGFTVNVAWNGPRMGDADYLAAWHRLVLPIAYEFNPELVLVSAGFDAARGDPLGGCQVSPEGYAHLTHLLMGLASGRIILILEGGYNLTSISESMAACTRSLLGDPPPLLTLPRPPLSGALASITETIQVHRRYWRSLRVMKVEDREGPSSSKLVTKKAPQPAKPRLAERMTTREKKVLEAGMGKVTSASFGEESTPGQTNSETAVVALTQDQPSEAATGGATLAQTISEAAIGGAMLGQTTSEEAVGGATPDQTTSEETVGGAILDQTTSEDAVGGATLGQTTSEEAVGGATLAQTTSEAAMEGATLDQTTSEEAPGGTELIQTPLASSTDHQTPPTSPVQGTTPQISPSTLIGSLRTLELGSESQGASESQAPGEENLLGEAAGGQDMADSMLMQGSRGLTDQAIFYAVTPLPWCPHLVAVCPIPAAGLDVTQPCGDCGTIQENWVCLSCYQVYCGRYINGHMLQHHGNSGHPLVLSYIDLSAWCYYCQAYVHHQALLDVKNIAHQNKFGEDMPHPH

[12] = Chemical stability of compound in PBS buffer assessed as drug degradation at 37 degree C; type: physicochemical

Histone deacetylase 3, sequence (O15379 whole entry): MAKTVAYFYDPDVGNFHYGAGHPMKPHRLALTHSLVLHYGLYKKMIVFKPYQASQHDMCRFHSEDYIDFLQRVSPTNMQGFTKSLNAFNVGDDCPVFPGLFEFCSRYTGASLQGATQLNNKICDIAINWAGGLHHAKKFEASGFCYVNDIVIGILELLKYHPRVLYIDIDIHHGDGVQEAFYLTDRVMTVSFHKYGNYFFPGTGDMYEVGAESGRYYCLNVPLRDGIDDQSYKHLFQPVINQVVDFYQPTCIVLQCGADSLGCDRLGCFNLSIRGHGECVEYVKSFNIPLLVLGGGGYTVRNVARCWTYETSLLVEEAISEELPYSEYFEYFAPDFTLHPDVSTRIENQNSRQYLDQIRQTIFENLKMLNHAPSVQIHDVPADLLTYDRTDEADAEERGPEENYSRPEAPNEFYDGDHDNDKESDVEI
Histone deacetylase 1, sequence (Q13547 whole entry): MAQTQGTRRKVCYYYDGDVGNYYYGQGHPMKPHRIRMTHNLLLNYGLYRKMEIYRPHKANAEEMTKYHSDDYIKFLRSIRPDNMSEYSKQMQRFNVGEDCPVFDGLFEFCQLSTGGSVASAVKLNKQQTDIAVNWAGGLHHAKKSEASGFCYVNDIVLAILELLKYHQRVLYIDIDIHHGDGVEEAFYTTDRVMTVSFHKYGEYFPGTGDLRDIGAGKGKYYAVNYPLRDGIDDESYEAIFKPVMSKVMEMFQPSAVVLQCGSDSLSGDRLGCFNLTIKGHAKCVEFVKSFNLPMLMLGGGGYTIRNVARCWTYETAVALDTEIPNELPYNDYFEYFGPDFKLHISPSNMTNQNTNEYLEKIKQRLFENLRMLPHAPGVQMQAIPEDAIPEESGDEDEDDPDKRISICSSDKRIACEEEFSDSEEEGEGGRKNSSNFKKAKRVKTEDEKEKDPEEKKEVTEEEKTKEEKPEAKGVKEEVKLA

With `CC[N+]1=C(/C=C/C2=C3Oc4cc(O)cc(OCCCCCCCC(=O)O)c4C=C3CCC2)C(C)(C)c2ccccc21.[I-]` the Activity [1] was “inactive”, the Activity [2] was 707 nm and the Drug uptake [3] was “Not Active”. For the same molecule, the Activity [4] was “inactive”, the Activity [5] was 723 nm and the Activity [6] was “Not Active”. For the same molecule, the IC50 [7] was 11 µM, the Drug uptake [8] was “Not Active” and the Drug uptake [9] was “Active”. For the same molecule, the IC50 [10] was 9.69 µM and the IC50 [11] was 13.8 µM.

With `CC[N+]1=C(/C=C/C2=C3Oc4cc(O)cc(OCCCCCCCC(=O)NO)c4C=C3CCC2)C(C)(C)c2ccccc21.[I-]` the IC50 [1] was 5.91 µM, the Activity [2] was 707 nm and the Stabilty [12] was “Stable”. For the same molecule, the Drug uptake [3] was “Active”, the IC50 ([4]; MDA-MB-231, 72 h) was 9.2 µM and the Activity [5] was 723 nm. The Activity [6] was “Not Active”, the IC50 [7] was 0.57 µM and the Drug uptake [8] was “Active”. The Drug uptake [9] was “Active”, the IC50 [10] was 0.36 µM and the IC50 [11] was 0.19 µM.
